IC50, EC50 and AC50 data for 40 compounds are collected here from ChEMBL document CHEMBL1201862, “PubChem BioAssay data set” (2004).

The target of one assay is T1, Protein skinhead-1 (Caenorhabditis elegans, UniProt P34707).
T1 sequence (P34707 whole entry): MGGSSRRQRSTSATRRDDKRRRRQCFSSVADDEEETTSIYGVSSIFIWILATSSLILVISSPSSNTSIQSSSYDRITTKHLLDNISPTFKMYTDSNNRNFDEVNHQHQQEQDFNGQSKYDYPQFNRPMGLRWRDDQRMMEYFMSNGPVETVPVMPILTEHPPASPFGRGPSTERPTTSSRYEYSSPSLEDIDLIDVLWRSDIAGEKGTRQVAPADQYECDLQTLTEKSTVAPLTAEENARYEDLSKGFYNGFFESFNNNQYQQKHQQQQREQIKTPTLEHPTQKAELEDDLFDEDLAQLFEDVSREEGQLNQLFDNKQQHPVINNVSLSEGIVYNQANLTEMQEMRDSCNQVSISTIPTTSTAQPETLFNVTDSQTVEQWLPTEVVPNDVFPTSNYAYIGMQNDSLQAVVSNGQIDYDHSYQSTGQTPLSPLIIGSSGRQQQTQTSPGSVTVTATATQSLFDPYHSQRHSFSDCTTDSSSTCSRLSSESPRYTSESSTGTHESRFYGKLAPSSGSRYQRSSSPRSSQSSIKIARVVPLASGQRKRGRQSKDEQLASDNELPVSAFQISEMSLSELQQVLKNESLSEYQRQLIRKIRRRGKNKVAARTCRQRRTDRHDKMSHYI
The class given is functional.

Assay [1] deals with T2, Heat shock factor protein 1 (Mus musculus, UniProt P38532).
T2 sequence (P38532 whole entry): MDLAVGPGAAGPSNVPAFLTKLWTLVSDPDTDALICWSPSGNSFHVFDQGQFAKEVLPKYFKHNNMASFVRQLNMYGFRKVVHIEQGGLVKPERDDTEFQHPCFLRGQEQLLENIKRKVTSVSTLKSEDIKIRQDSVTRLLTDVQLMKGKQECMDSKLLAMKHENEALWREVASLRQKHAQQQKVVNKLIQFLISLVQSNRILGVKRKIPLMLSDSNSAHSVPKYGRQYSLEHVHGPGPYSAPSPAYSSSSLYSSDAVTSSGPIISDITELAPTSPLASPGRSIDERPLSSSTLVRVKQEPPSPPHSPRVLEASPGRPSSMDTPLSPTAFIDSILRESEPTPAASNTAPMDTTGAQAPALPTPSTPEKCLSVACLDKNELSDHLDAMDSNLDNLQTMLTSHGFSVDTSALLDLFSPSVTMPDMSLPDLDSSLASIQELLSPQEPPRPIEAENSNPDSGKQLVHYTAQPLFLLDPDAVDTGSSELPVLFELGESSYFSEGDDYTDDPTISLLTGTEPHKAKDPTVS
Nature of the assay: HSF1 potentiators in luciferase reporter cells, confirmation, cell-based, NIH3T3, luminescence, dose retest (AID 435004).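 Further: stress induced by proteasome inhibitor MG132 added 30 min after compound; luciferase reporter driven by HSF1 response element in NIH3T3 cells; actives raise luminescence as potentiators of the MG132 stress response.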 The class given is functional.

The target of another assay is Cytochrome P450 3A4 (Homo sapiens, UniProt P08684).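 Further: CYP3A4 tested as one member of a cytochrome P450 panel screen.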
For the next assay, the target named is Cytochrome P450 2C9 (Homo sapiens, UniProt P11712).
The target of the next assay is T3, Cytochrome P450 1A2 (Homo sapiens, UniProt P05177).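 Further: PubChem cytochrome P450 panel assay, CYP1A2 panel member.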
T3 sequence (P05177 whole entry): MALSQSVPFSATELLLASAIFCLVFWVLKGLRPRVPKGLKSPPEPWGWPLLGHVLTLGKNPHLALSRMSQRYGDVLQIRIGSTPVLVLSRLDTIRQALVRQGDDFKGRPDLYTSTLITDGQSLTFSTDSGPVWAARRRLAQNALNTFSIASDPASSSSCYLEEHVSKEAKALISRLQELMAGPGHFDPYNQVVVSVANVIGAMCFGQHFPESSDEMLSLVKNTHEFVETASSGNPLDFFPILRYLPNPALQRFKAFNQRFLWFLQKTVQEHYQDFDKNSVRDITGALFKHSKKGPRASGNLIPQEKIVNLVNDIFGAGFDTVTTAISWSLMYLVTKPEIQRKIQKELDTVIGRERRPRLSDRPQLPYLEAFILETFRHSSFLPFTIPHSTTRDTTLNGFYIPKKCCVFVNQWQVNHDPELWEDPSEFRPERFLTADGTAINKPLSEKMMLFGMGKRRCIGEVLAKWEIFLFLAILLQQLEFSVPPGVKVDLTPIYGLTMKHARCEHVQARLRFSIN

The target in assay [2] is T4, Corticotropin-releasing factor receptor 2/Corticotropin-releasing factor-binding protein (Homo sapiens, UniProt P24387+Q13324).
T4 sequence (Q13324 whole entry): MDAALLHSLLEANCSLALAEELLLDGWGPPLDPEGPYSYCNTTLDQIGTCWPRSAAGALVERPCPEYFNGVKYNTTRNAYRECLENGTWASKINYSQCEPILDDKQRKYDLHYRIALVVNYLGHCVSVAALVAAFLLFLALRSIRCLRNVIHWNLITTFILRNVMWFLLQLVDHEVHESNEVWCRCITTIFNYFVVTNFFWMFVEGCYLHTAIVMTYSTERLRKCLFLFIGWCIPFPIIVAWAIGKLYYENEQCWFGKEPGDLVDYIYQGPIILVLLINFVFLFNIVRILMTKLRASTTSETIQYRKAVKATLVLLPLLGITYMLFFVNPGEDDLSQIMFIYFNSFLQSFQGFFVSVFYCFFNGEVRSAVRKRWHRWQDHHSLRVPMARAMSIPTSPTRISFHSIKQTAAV
T4 sequence (P24387 whole entry): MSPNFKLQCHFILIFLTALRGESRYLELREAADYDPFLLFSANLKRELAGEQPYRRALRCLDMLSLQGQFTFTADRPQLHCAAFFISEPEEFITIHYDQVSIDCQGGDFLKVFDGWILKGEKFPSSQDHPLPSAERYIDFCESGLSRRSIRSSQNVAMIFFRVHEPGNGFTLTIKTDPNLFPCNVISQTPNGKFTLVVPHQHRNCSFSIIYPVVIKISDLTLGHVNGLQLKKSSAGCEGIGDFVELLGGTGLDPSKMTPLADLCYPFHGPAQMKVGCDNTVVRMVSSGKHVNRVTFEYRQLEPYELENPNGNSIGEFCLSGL
Nature of the assay: activators of CRF receptor 2 with binding protein – uHTS hits, confirmation (AID 602473). The class given is functional. To be noted: read-out: EC50_Mean.

For assay [3], the target named is T4, Corticotropin-releasing factor receptor 2/Corticotropin-releasing factor-binding protein. In words: Dose Response confirmation of uHTS hits for small molecule antagonists of the CRF-binding protein and CRF-R2 receptor complex. The class given is functional. Conditions: read-out: IC50_Mean.
The nature of assay [4]: Luminescence Cell-Based Dose Response HTS to Identify Activators of Luciferase Translation or Activity in H4 […] Cells. [Related pubchem assays: 1829 (Project Summary), 1814 (Primary HTS)]. The class given is functional.
In the next assay the test system is H4. In words: Luminescence Cell-Based Dose Response HTS to Identify Activators of 5'UTR Stem-Loop Driven Prion Protein mRNA Translation in H4 Neuroglioblastoma Cells. [Related pubchem assays: 1829 (Project Summary), 1814 (Primary HTS)]. The class given is functional. Conditions: Homo sapiens.
The nature of assay [5]: inhibitors of intracellular T. cruzi replication, confirmation, NIH3T3 host cells, beta-gal luminescence (AID 2044).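 Further: intracellular parasites grown in NIH/3T3 mouse fibroblasts as host cells; luminescent beta-galactosidase reporter signal from transgenic T. cruzi replicating inside host cells; inhibitors lower the luminescence signal.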 The class given is functional, cell-based.
Assay [6] is described as follows: cytotoxicity toward NIH3T3 fibroblasts, dose response, counter-screen, cell-based, ATP luminescence, mouse fibroblasts (AID 2010).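 Further: cells exposed to compound for about 90 hours before reading.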 The class given is functional.

Calls of active or inactive are those of the source. Bounds are passed on as bounds.

Chain of Cytochrome P450 3A4 (P08684 whole entry): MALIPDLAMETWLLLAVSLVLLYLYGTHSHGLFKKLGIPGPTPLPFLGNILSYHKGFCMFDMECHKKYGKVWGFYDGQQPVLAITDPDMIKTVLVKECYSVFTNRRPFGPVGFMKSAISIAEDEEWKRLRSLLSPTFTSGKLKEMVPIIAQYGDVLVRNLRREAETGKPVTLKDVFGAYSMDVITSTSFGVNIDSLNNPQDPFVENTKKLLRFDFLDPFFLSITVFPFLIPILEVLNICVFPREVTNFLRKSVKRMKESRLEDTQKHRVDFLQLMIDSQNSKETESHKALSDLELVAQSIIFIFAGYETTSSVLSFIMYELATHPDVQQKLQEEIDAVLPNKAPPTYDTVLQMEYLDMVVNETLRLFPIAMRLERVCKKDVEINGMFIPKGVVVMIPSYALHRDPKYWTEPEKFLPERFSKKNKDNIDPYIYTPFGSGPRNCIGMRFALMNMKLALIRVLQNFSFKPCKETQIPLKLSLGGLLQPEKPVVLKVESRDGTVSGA
Chain of Cytochrome P450 2C9 (P11712 whole entry): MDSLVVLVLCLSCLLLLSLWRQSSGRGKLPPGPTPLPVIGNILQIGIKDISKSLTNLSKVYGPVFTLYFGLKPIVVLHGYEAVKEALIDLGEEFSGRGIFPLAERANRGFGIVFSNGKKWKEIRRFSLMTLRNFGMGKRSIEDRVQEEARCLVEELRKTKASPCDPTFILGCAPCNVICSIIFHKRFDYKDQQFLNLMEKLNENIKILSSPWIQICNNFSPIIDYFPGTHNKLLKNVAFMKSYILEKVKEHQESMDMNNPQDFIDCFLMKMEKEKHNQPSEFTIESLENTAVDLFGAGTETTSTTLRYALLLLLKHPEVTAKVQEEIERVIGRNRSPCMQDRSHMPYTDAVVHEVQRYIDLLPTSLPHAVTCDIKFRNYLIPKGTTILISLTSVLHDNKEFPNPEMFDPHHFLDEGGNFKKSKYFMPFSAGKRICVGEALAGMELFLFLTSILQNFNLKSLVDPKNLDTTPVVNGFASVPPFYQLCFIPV

For `O=C1/C(=C\c2cccs2)SC(=S)N1C1CCS(=O)(=O)C1` (centres undefined), the IC50 at Protein skinhead-1 was > 100 µM (inactive). For the compound `Cc1cc(C)n(-c2nc3ccccc3n3cnnc23)n1`, on Protein skinhead-1, the IC50 is > 100 µM (inactive). The same measure, in the same setting: the value for `Clc1ccc(-c2nnc(-c3ccccc3)o2)cn1` was 39.8 µM (active). With `CCn1cc(C(=O)OCC(=O)NCc2ccc3c(c2)OCO3)c(=O)c2ccc(C)nc21`, the IC50 at Protein skinhead-1 was > 100 µM (inactive).

Take `COc1ccc(/C(C)=N/NC(=S)NCc2ccco2)cc1`: the EC50 in assay [1] was > 260 µM (inactive). Turning to `COc1cccc(-c2ccc3ncnc(N4CCNCC4)c3c2)c1`, the AC50 on Cytochrome P450 3A4 is 10 µM (inconclusive). As for `O=C(C1CCN(S(=O)(=O)c2cccc3nsnc23)CC1)N1CCCc2ccccc21`, the AC50 on Cytochrome P450 2C9 is 39.8 µM (inconclusive); at Cytochrome P450 1A2 it was 10 µM (inconclusive). On to `COc1ccc(-c2nc3cnc(N4CCNCC4)nc3n(C)c2=O)cc1`, for which the AC50 was 12.6 µM (inconclusive) on Cytochrome P450 1A2 and 31.6 µM (inconclusive) on Cytochrome P450 3A4. For `c1ccc(N2CCN(c3cnc4ccccc4n3)CC2)cc1`, at Protein skinhead-1, the IC50 was 76.2 µM (inactive).

Turning to `CC(NC(=O)/C=C/c1ccco1)c1nc2ccccc2n1Cc1cccc(Cl)c1` (centres undefined), the EC50 in [1] is > 260 µM (inactive).

In the case of `O=C(CN1CCN(S(=O)(=O)N2CCCCC2)CC1)Nc1cc(Cl)cc(Cl)c1`, on Protein skinhead-1, the IC50 was > 100 µM (inactive). For `Fc1ccc(-c2cnn3c(-c4ccncc4)ccnc23)cc1`, the IC50 at Protein skinhead-1 was > 100 µM (inactive).

Take `CCOC(=O)C1=C(Nc2ccccc2)CC(C)(O)C(C(=O)OCC)C1c1ccc(Cl)cc1` (centres undefined): on Protein skinhead-1, the IC50 was > 100 µM (inactive). As to `Cc1csc(NC(=O)CNS(=O)(=O)c2cccs2)n1`, the AC50 on Cytochrome P450 3A4 is 17.8 µM (inconclusive). Turning to `COc1ccc(/C=C/C(=O)N(C(C)C)C(C)C)cc1Br`, the EC50 in assay [1] is 200 µM (active). As for `COc1ccc(NC(=O)CSc2nnc(C3CC3)n2N)cc1`, the concentration at half-maximal activity (AC50) at Cytochrome P450 2C9 was 28.2 µM (inconclusive); at Cytochrome P450 1A2, 39.8 µM (inconclusive). Taken in the same sequence, the figures for `CCOC(=O)c1c(NC(=O)Cn2nc([N+](=O)[O-])c(Br)c2C)sc2c1CCC(C)C2` (centres undefined) were 3.55 µM (inconclusive) and 2.82 µM (inconclusive). Take `CSc1ccc(S(=O)(=O)N2CCC(C(=O)Nc3ccccc3C(F)(F)F)CC2)cc1`: the IC50 at Protein skinhead-1 is > 100 µM (inactive). As for `CCc1nc(NCCC(C)C)c(C#N)c2c1CCCC2`, the EC50 in assay [2] was > 53 µM (inactive). Moreover, the IC50 in [3] is > 47.1 µM (inactive); on Protein skinhead-1 it was > 100 µM (inactive). In the case of `COc1ccc(Nc2oc(-c3ccc(F)cc3)nc2C#N)cc1`, the EC50 in assay [4] was 15.1 µM (active); with H4, > 120 µM (not active). Take `Cc1ccccc1OCc1nnc2c3cnn(C)c3ncn12`: the EC50 in assay [4] is 16.8 µM (active); in the assay with H4 it was 38.8 µM (active). For `COc1cc(-c2cn(S(=O)(=O)c3cccc4nsnc34)nc2N)cc(OC)c1OC`, the EC50 in assay [1] was > 260 µM (inactive). In the case of `CC(=O)NCCNc1nc(-c2ccccc2Cl)nc2ccccc12`, on Cytochrome P450 3A4, the AC50 was 5.01 µM (inconclusive). `COc1cc(/C=N/NC(=O)c2ccncc2)ccc1OC(=O)c1ccc([N+](=O)[O-])cc1`: the results for the AC50 on Cytochrome P450 2C9 and on Cytochrome P450 3A4 were 3.55 µM (inconclusive) and 0.891 µM (inconclusive), respectively.

With `CC(=O)N1CSCC1C(=O)NNS(=O)(=O)c1cccc(C(F)(F)F)c1` (centres undefined), the EC50 in [1] was > 260 µM (inactive). On the same count and under the same terms, then `N#C/C(=C(\O)C(F)(F)F)c1nnc2n1CCCCC2`, with > 260 µM (inactive). For `CC(=O)N1CCC[C@@]2(CCN(Cc3nccs3)C2)C1`, the AC50 at Cytochrome P450 3A4 is 31.6 µM (inconclusive). As for `COC(=O)c1[nH]c2ccccc2c1NC(=O)C(C)N1CCOCC1` (centres undefined), on Protein skinhead-1, the IC50 is > 100 µM (inactive). In the case of `O=C(Nc1ccccc1C(=O)N1CCCC1)c1ncoc1-c1cccc(Cl)c1`, in assay [1], the EC50 was > 260 µM (inactive). `N[C@@H](CC1=CS(=O)(=O)c2ccc(Cl)cc21)C(=O)O`: the AC50 on Cytochrome P450 2C9 is 6.31 µM (inconclusive); on Cytochrome P450 1A2, 0.398 µM (inconclusive); at Cytochrome P450 3A4, 5.01 µM (inconclusive). On to `N#CC(c1ccccn1)(c1ncc(C(F)(F)F)cc1Cl)N1CCOCC1` (centres undefined), for which the AC50 on Cytochrome P450 3A4 was 35.5 µM (inconclusive).

For the compound `CN(C)c1ccc(C(CNC(=O)c2ccccc2)c2c[nH]c3ccccc23)cc1` (centres undefined), in assay [1], the EC50 was > 260 µM (inactive). For the compound `CCCNC(=N)NCCC[C@H](N)C(=O)O`, the AC50 on Cytochrome P450 1A2 was 31.6 µM (inconclusive).

As to `CSc1ccc2c(c1)N(CCCN(C)C)c1ccccc1S2`, the AC50 at Cytochrome P450 1A2 was 1.26 µM (inconclusive). Turning to `C[C@@H](N)Cn1ccc2cc(F)c(Cl)cc21`, the AC50 on Cytochrome P450 3A4 was 39.8 µM (inconclusive).

As for `COc1ccc(C(=O)N2CCC[C@@]3(CCN(c4cccc(-c5ccccc5)c4)C3)C2)cc1`, the AC50 on Cytochrome P450 1A2 was 12.6 µM (inconclusive). `CCN(CC)c1ccc(N2C(=O)/C(=C/c3cccnc3)SC2=S)cc1`: the AC50 at Cytochrome P450 1A2 was 6.31 µM (inconclusive). In the case of `CO/C(O)=C1/C(C)=NC2=C(C(=O)CC(C)(C)C2)C1c1cn(Cc2ccc(Br)cc2)nc1-c1ccccc1` (centres undefined), the EC50 in assay [1] was > 260 µM (inactive). On to `COc1cccc(CNCc2ccc(SC)cc2)c1OC`, for which the AC50 at Cytochrome P450 3A4 is 11.2 µM (inconclusive). `N#C/C(=C\c1ccc(Sc2ccccc2)o1)c1nc2ccccc2[nH]1`: the EC50 is 0.561 µM (active) in assay [4], 1.42 µM (active) in [5], 23 µM (active) in the assay with H4 and > 60 µM (inconclusive) in assay [6].
